Assay results as given in the supplement of paper PMC10949913.

Tests used:
Assay in all cases: area under concentration-response curve (viability) (AUC (a.u.)); higher = less active
Details in all cases: 48 h
CU-ACC1 = tested on: CU-ACC1
In short: (§1)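 Library compounds were dispensed at 11 concentrations (23 nL each) onto three adrenocortical carcinoma cell lines in 1,536-well plates. Luminescence was recorded after 48 h using CellTiter-Glo, and signals were normalised per plate to vehicle and empty-well controls. Fitted concentration-response curves of inhibitory or non-responding classes only supplied the AC50 and area under the curve.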

CU-ACC2 = tested on: CU-ACC2
In short: as §1

NCI-H295R = tested on: NCI-H295R
In short: as §1

| Structure (SMILES) | area under concentration-response curve (CU-ACC1) | area under concentration-response curve (CU-ACC2) | area under concentration-response curve (NCI-H295R) |
| --- | --- | --- | --- |
| N\C1=N\C2=C(N=C[N]2COC(CO)CO)C(=O)N1 | 567 | 645 | 605 |
| CN[C@@H]1[C@H](O[C@H]2[C@H](O[C@@H]3[C@@H](O)[C@H](O)[C@@H](NC(=N)N)[C@H](O)[C@H]3NC(=N)N)O[C@@H](C)[C@]2(O)C=O)O[C@@H](CO)[C@H](O)[C@H]1O | 516 | 606 | 553 |
| CC(C)=CCC/C(C)=C/CC/C(C)=C/CSc1ccccc1C(=O)O | 527 | 598 | 540 |
| CC#CCn1c(N2CCC[C@@H](N)C2)nc2c1c(=O)n(Cc1nc(C)c3ccccc3n1)c(=O)n2C | 503 | 606 | 561 |
| O=[N+]([O-])c1cncn1CCN1CCOCC1 | 545 | 611 | 563 |
| COc1ccc(/C=C\c2cc(OC)c(OC)c(OC)c2)cc1NC(=O)[C@H](N)CO | 542 | 594 | 521 |
| CCCCCCCCCCCCc1ccc([S+](=O)([O-])Nc2nncs2)cc1 | 543 | 604 | 527 |
| CC(=O)OCCN1C(=O)c2c(C)nc3ccc([S+](=O)([O-])N4CCOCC4)cc3c2C1=O | 547 | 653 | 581 |
| COC/1=C(\CNC(=O)C2=C(C)[N]([C@H](C)C3CCN(CC3)CC(F)(F)F)C4=C2C=CC=C4)C(=O)N/C(=C1)C | 453 | 556 | 470 |
| Cc1cnc(NC(=O)c2cc(Oc3cnc(C(=O)N(C)C)nc3)c3cc(C)oc3c2)cn1 | 564 | 643 | 594 |
| OC[C@H]1O[C@@H]2[C@@H](OC\3=N\C(=N)\C=C/[N@@]23)[C@@H]1O | 488 | 504 | 472 |
| COC(=O)CCC1=C(C)C2=CC3=NC(=CC4=C(C)C(=C([NH]4)C=C\5N=C(C=C1[NH]2)\C(=C5C)CCC(O)=O)C=C)\C6=C\C=C(/[C@@H](C(=O)OC)[C@@]36C)C(=O)OC | 438 | 416 | 462 |
| CCN(CC)CCN1C(=O)\C(=N/C2=CC=CC=C12)CC3=CC=C(OC)C=C3 | 472 | 526 | 501 |
| NC1=NC=CC2=C1N=C[N]2[C@@H]3\C=C(CO)/[C@@H](O)[C@H]3O | 448 | 454 | 403 |
| C[C@H](NC(=O)Cc1cc(F)cc(F)c1)C(=O)N[C@H](C(=O)OC(C)(C)C)c1ccccc1 | 570 | 677 | 572 |
| COc1ccc([C@@H]2CNC(=O)C2)cc1OC1CCCC1 | 432 | 457 | 516 |

| Structure (SMILES) | area under concentration-response curve (CU-ACC1) | area under concentration-response curve (CU-ACC2) | area under concentration-response curve (NCI-H295R) |
| --- | --- | --- | --- |
| NC1CCC(N[C@@H]2C[C@H]2c2ccccc2)CC1 (stereo partly specified) | 409 | 487 | 458 |
| C#CCN[C@@H]1CCc2ccccc21 | 565 | 642 | 590 |
| CN1C2CCC1CC(OC(=O)C(CO)c1ccccc1)C2 (stereo unspecified) | 408 | 396 | 396 |
| COc1cc(C)c(/C=C/C(C)=C/C=C/C(C)=C/C(=O)O)c(C)c1C | 484 | 544 | 524 |
| CC(C)[C@H](CO)Nc1nc(Nc2ccc(C(=O)O)c(Cl)c2)c2ncn(C(C)C)c2n1 | 529 | 626 | 594 |
| CNC(=O)c1cccc(-c2ccc3c(N4CCOC[C@@H]4C)nc(N4CCOC[C@@H]4C)nc3n2)c1 | 452 | 545 | 453 |
| OC(=O)C1=CC=C(NC2=NC3=C(C\N=C(/C4=CC(=CC=C34)Cl)C5=C(F)C=CC=C5F)C=N2)C=C1 | 504 | 559 | 517 |
| COc1ccc(CC2c3cc(OC)c(OC)cc3CC[N+]2(C)CCC(=O)OCCCCCOC(=O)CC[N+]2(C)CCc3cc(OC)c(OC)cc3C2Cc2ccc(OC)c(OC)c2)cc1OC (stereo unspecified) | 449 | 494 | 474 |
| CCC(C)CCCCC(=O)N[C@@H](CCN)C(=O)NC(C(=O)N[C@H](CCN)C(=O)N[C@@H]1CCNC(=O)C([C@@H](C)O)NC(=O)[C@@H](CCN)NC(=O)[C@@H](CCN)NC(=O)[C@@H](CC(C)C)NC(=O)[C@H](Cc2ccccc2)NC(=O)[C@H](CCN)NC1=O)[C@@H](C)O (stereo partly specified) | 505 | 631 | 553 |
| C[N]1C2=C(SC(=C2)[S+](C)[O-])C\3=C1C(=O)N(CC4=CC(=CC=C4)N)\N=C3 (stereo unspecified) | 363 | 511 | 468 |
| O=C(NCc1ccncc1)C12C[C@H]3C[C@@H](C1)CC(c1ccc(Cl)cc1)(C3)C2 | 486 | 576 | 468 |
| CCCCCCCc1ccc(CCc2cccc(O)c2C(=O)O)cc1 | 515 | 574 | 534 |
| Cc1cc(C)c2c(c1)[C@@H](N(Cc1cc(C(F)(F)F)cc(C(F)(F)F)c1)c1nnn(C)n1)CCCN2C[C@H]1CC[C@H](C(=O)O)CC1 | 489 | 582 | 529 |
| Nc1ncnc2c1c(COc1cccc(Cl)c1)nn2C1CCOCC1 | 461 | 578 | 525 |
| CC(=O)C1CCC2C3CC\C4=C\C(=O)CCC4(C)C3CCC12C (stereo unspecified) | 548 | 645 | 607 |
| COc1cccc(Nc2ncnn3ccc(CN4CC[C@@H](N)[C@H](O)C4)c23)c1 | 399 | 534 | 552 |
